One compound from publication PMC10541198, “Specific quinone reductase 2 inhibitors reduce metabolic burden and reverse Alzheimer’s disease phenotype in mice” (The Journal of Clinical Investigation, 2023) can be followed below.

The data set can be described thus: Drinking rate during chronic ingestion. The class given is in vivo, mouse. Set-up: Sup. Fig. 5-2B, drinking rate: unit: ml/g/day. How it is done: Supplementary Figure 6. Chronic Drinking of 50 mg/kg YB -537 for of 1 Month Causes no Changes
in General Mouse Physiology or Behavior but Improves Nesting Behavior Over Time.
(A) Weight of male and female, 8–9- month-old 5xFAD mice over the course of 25 days while consuming
(B) Drinking rate of water or YB-537 in the cages of the 5xFAD mice. […]

Where “and” joins values, the source holds several entries; their conditions need not be identical. Identical values can stand only once.

For the compound `Cc1ccc(-c2cn3cccc(C)c3n2)cc1S(=O)(=O)N1CCNCC1` [YB-537], the average drinking rate was 0.170 ± 0.011 mL/g/day (5xFAD females) and 0.170 ± 0.035 mL/g/day (5xFAD males). Besides, the “Sup. Fig. 5-2B, drinking rate” value (Female) was 0.159 and 0.182; the “Sup. Fig. 5-2B, drinking rate” value (Male) is 0.207 and 0.135.
